Values joined by “and” are separate entries in the source; they are usually repeats but may differ in a detail not shown here. Equal values may be shown once.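 Assay format: 96-well plates, 48-hour exposure. GI50: concentration for 50% inhibition of growth. TGI: concentration producing complete growth inhibition.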
Columns and labels:
Test in all cases: DTP human tumour cell line panel, 48 h
[1] = tested on: HCC-2998 colon
[2] = tested on: SR leukemia
[3] = tested on: UACC-257 melanoma
[4] = tested on: CAKI-1 renal
[5] = tested on: HOP-18 NSCLC
[6] = tested on: COLO 205 colon
[7] = tested on: UACC-62 melanoma
[8] = tested on: K-562 leukemia
[9] = tested on: SF-268 CNS
[10] = tested on: SK-MEL-5 melanoma
[11] = tested on: TK-10 renal
[12] = tested on: RPMI-8226 leukemia
[13] = tested on: DLD-1 colon
[14] = tested on: NCI-H460 lung
[15] = tested on: CCRF-CEM leukemia
[16] = tested on: ACHN renal
[17] = tested on: LOX IMVI melanoma
[18] = tested on: M19-MEL melanoma
[19] = tested on: OVCAR-5 ovarian
[20] = tested on: SK-MEL-28 melanoma
[21] = tested on: NCI-H226 lung
[22] = tested on: UO-31 renal
[23] = tested on: LXFL 529 NSCLC
[24] = tested on: SF-295 CNS
[25] = tested on: OVCAR-3 ovarian
[26] = tested on: HOP-62 NSCLC
[27] = tested on: SW-620 colon
[28] = tested on: MOLT-4 leukemia
[29] = tested on: SK-MEL-2 melanoma
[30] = tested on: HOP-92 NSCLC
[31] = tested on: SNB-78 CNS
[32] = tested on: A498 renal
[33] = tested on: SN12C renal
[34] = tested on: OVCAR-8 ovarian
[35] = tested on: A549 NSCLC
[36] = tested on: HT29 colon
[37] = tested on: KM20L2 colon
[38] = tested on: NCI-H23 lung
[39] = tested on: RXF-631 renal
[40] = tested on: M14 melanoma
[41] = tested on: HCT-15 colon
[42] = tested on: EKVX NSCLC
[43] = tested on: KM12 colon
[44] = tested on: 786-0 renal
[45] = tested on: DMS 273 small cell lung
[46] = tested on: SNB-75 CNS
[47] = tested on: RXF 393 renal
[48] = tested on: U251 CNS
[49] = tested on: IGROV1 ovarian
[50] = tested on: HCT-116 colon
[51] = tested on: HL-60(TB) leukemia
[52] = tested on: SF-539 CNS
[53] = tested on: OVCAR-4 ovarian
[54] = tested on: MALME-3M melanoma
[55] = tested on: SK-OV-3 ovarian
[56] = tested on: XF 498 CNS
[57] = tested on: SNB-19 CNS
[58] = tested on: NCI-H522 lung
[59] = tested on: DMS 114 small cell lung

## CC1(C)OC2C(=O)OC(COCc3ccccc3)C2O1 (centres undefined)
[1]
  TGI: > 100 µM
[2]
  TGI: > 100 µM
[3]
  TGI: > 100 µM
[4]
  TGI: > 100 µM
[5]
  TGI: > 100 µM
[6]
  TGI: > 100 µM
[7]
  TGI: > 100 µM
[8]
  TGI: > 100 µM
[9]
  TGI: > 100 µM
[10]
  TGI: > 100 µM
[11]
  TGI: > 100 µM
[12]
  TGI: > 100 µM
[13]
  TGI: > 100 µM
[14]
  TGI: > 100 µM
[15]
  TGI: > 100 µM
[16]
  TGI: > 100 µM
[17]
  TGI: > 100 µM
[18]
  TGI: > 100 µM
[19]
  TGI: > 100 µM
[20]
  TGI: > 100 µM
[21]
  TGI: > 100 µM
[22]
  TGI: > 100 µM
[23]
  TGI: > 100 µM
[24]
  TGI: > 100 µM
[25]
  TGI: > 100 µM
[26]
  TGI: > 100 µM
[27]
  TGI: > 100 µM
[28]
  TGI: > 100 µM
[29]
  TGI: > 100 µM
[30]
  TGI: > 100 µM
[31]
  TGI: > 100 µM
[32]
  TGI: > 100 µM
[33]
  TGI: > 100 µM
[34]
  TGI: > 100 µM
[35]
  TGI: > 100 µM
[36]
  TGI: > 100 µM
[37]
  TGI: > 100 µM
[38]
  TGI: > 100 µM
[39]
  TGI: > 100 µM
[40]
  TGI: > 100 µM
[41]
  TGI: > 100 µM
[42]
  TGI: > 100 µM
[43]
  TGI: > 100 µM
[44]
  TGI: > 100 µM
[45]
  TGI: > 100 µM
[46]
  TGI: > 100 µM
[47]
  TGI: > 100 µM
[48]
  TGI: > 100 µM
[49]
  TGI: > 100 µM
[50]
  TGI: > 100 µM
[51]
  TGI: > 100 µM
[52]
  TGI: > 100 µM
[53]
  TGI: > 100 µM
[54]
  TGI: > 100 µM

## Nc1nc(N)c2ncn(CC(CO)CC(c3ccccc3)P(=O)(O)O)c2n1 (centres undefined)
[1]
  TGI: > 100 µM
[2]
  GI50: > 100 µM and 35 µM
  TGI: > 100 µM
[3]
  TGI: > 100 µM
[4]
  TGI: > 100 µM
[5]
  TGI: > 100 µM
[6]
  TGI: > 100 µM
[7]
  TGI: > 100 µM
[8]
  TGI: > 100 µM
[9]
  TGI: > 100 µM
[10]
  TGI: > 100 µM
[11]
  TGI: > 100 µM
[12]
  TGI: > 100 µM
[13]
  TGI: > 100 µM
[14]
  TGI: > 100 µM
[15]
  TGI: > 100 µM
[16]
  TGI: > 100 µM
[17]
  TGI: > 100 µM
[18]
  TGI: > 100 µM
[19]
  TGI: > 100 µM
[20]
  TGI: > 100 µM
[55]
  TGI: > 100 µM
[21]
  TGI: > 100 µM
[22]
  TGI: > 100 µM
[23]
  GI50: > 100 µM and 13.8 µM
  TGI: > 100 µM and 99.3 µM
[24]
  TGI: > 100 µM
[25]
  TGI: > 100 µM
[56]
  TGI: > 100 µM
[26]
  TGI: > 100 µM
[27]
  TGI: > 100 µM
[28]
  TGI: > 100 µM
[29]
  TGI: > 100 µM
[30]
  TGI: > 100 µM
[31]
  TGI: > 100 µM
[32]
  TGI: > 100 µM
[33]
  TGI: > 100 µM
[34]
  TGI: > 100 µM
[35]
  TGI: > 100 µM
[36]
  TGI: > 100 µM
[37]
  TGI: > 100 µM
[38]
  TGI: > 100 µM
[57]
  TGI: > 100 µM
[40]
  TGI: 10.4 µM
[41]
  TGI: > 100 µM
[42]
  TGI: > 100 µM
[43]
  TGI: > 100 µM
[45]
  TGI: > 100 µM
[46]
  TGI: > 100 µM
[58]
  TGI: > 100 µM
[47]
  TGI: > 100 µM
[59]
  TGI: > 100 µM
[48]
  TGI: > 100 µM
[49]
  TGI: > 100 µM
[50]
  TGI: > 100 µM
[51]
  TGI: > 100 µM
[52]
  TGI: > 100 µM
[54]
  TGI: > 100 µM

## COC(=O)C12C3C4C1C1C2C3C41I (centres undefined)
[1]
  TGI: > 100 µM
[3]
  TGI: > 100 µM
[4]
  TGI: > 100 µM
[5]
  TGI: > 100 µM
[6]
  TGI: > 100 µM
[7]
  TGI: > 100 µM
[8]
  TGI: > 100 µM
[9]
  TGI: > 100 µM
[10]
  TGI: > 100 µM
[11]
  TGI: > 100 µM
[12]
  TGI: > 100 µM
[13]
  TGI: > 100 µM
[14]
  TGI: > 100 µM
[15]
  TGI: > 100 µM
[16]
  TGI: > 100 µM
[18]
  TGI: > 100 µM
[19]
  TGI: > 100 µM
[20]
  TGI: > 100 µM
[55]
  TGI: > 100 µM
[21]
  TGI: > 100 µM
[22]
  TGI: > 100 µM
[23]
  TGI: > 100 µM
[24]
  TGI: > 100 µM
[25]
  TGI: > 100 µM
[56]
  TGI: > 100 µM
[26]
  TGI: > 100 µM
[27]
  TGI: > 100 µM
[28]
  TGI: > 100 µM
[30]
  TGI: > 100 µM
[31]
  TGI: > 100 µM
[32]
  TGI: > 100 µM
[33]
  TGI: > 100 µM
[34]
  TGI: > 100 µM
[35]
  TGI: > 100 µM
[36]
  TGI: > 100 µM
[37]
  TGI: > 100 µM
[38]
  TGI: > 100 µM
[39]
  TGI: > 100 µM
[57]
  TGI: > 100 µM
[40]
  TGI: > 100 µM
[41]
  TGI: > 100 µM
[42]
  TGI: > 100 µM
[44]
  TGI: > 100 µM
[47]
  TGI: > 100 µM
[59]
  TGI: > 100 µM
[48]
  TGI: > 100 µM
[49]
  TGI: > 100 µM
[51]
  TGI: > 100 µM
[52]
  TGI: > 100 µM
[53]
  TGI: > 100 µM
[54]
  TGI: > 100 µM

## O=C(O)c1[nH]c(C(=O)O)c(CC(F)(F)C(F)(F)C(F)(F)F)c1CC(F)(F)C(F)(F)C(F)(F)F
[1]
  TGI: > 100 µM
[3]
  TGI: > 100 µM
[4]
  TGI: > 100 µM
[5]
  TGI: > 100 µM
[6]
  TGI: > 100 µM
[7]
  TGI: > 100 µM
[8]
  TGI: > 100 µM
[9]
  TGI: > 100 µM
[10]
  TGI: > 100 µM
[11]
  TGI: > 100 µM
[12]
  TGI: > 100 µM
[13]
  TGI: > 100 µM
[14]
  TGI: > 100 µM
[15]
  TGI: > 100 µM
[16]
  TGI: > 100 µM
[17]
  TGI: > 100 µM
[18]
  TGI: > 100 µM
[19]
  TGI: > 100 µM
[20]
  TGI: > 100 µM
[55]
  TGI: > 100 µM
[21]
  TGI: > 100 µM
[22]
  TGI: > 100 µM
[23]
  TGI: > 100 µM
[24]
  TGI: > 100 µM
[25]
  TGI: > 100 µM
[56]
  TGI: > 100 µM
[26]
  TGI: > 100 µM
[27]
  TGI: > 100 µM
[30]
  TGI: > 100 µM
[31]
  TGI: > 100 µM
[32]
  TGI: > 100 µM
[33]
  TGI: > 100 µM
[34]
  TGI: > 100 µM
[35]
  TGI: > 100 µM
[36]
  TGI: > 100 µM
[37]
  TGI: > 100 µM
[38]
  TGI: > 100 µM
[39]
  TGI: > 100 µM
[57]
  TGI: > 100 µM
[40]
  TGI: > 100 µM
[41]
  TGI: > 100 µM
[42]
  TGI: > 100 µM
[43]
  TGI: > 100 µM
[44]
  TGI: > 100 µM
[45]
  TGI: > 100 µM
[46]
  TGI: > 100 µM
[58]
  TGI: > 100 µM
[47]
  TGI: > 100 µM
[59]
  TGI: > 100 µM
[48]
  TGI: > 100 µM
[49]
  TGI: > 100 µM
[50]
  TGI: > 100 µM
[51]
  TGI: > 100 µM
[52]
  TGI: > 100 µM
[53]
  TGI: > 100 µM
[54]
  TGI: > 100 µM
